For test [1], the target named is T1, recombinant ICL (isocitrate lyase) from C. albicans ATCC10231 (Candida albicans, UniProt Q9P8Q7).
T1 construct: made in house
Put plainly: biochemical. How it is done: Isolated diketopiperazines were tested for ICL inhibitory activity according to methods reported previously. […] To determine the type of inhibition, kinetic analysis was performed with cyclo(L-Phe-L-Val) (inhibitor) and phenylhydrazine […]. The inhibitor constant (Ki) was calculated from the Dixon plot.
S. puniceus Act1085 was used as the diketopiperazine-producing strain. C. albicans SC5314 (ATCC MYA-2876) (wild-type), MRC10 (Δicl) (icl-deletion mutant), MRC11 (Δicl + ICL) (icl-deletion mutant), […], ATCC18804, and ATCC11006 were used for the growth assay. C. albicans ATCC10231 was used to obtain recombinant ICL. Prof. Michael C. Lorenz (University of Texas Health Science Center, Houston, TX, USA) kindly provided the ICL mutants.
Before evaluation of the ICL inhibitory activity of the test compounds, the recombinant ICL from C. albicans was prepared according to methods described in a previous report. The ICL inhibitory activity of the test compounds was determined according to a previously described method. The ICL inhibition assay is based on the principle that glyoxylate phenylhydrazone forms in the reaction reagent after treatment with isocitrate and phenylhydrazine. Each test compound was dissolved in DMSO. The reaction mixture consisted of 20 mM sodium phosphate buffer (pH 7.0), 1.27 mM threo-DL(+)isocitrate, 3.75 mM MgCl2, 4.1 mM phenylhydrazine, and 2.5 μg/mL purified ICL and was incubated with or without the test compounds at a concentration range of 1–128 μg/mL at 37 °C for 30 min. The increase in intensity of absorbance resulting from the formation of glyoxylate phenylhydrazone was observed using a spectrophotometer (Shimadzu) at a wavelength of 324 nm. The inhibitory activity of the test compound was calculated relative to that of the DMSO control (n = 3). The methods for determination of the IC50 value and ICL enzyme concentrations have been described in previous reports. A known ICL inhibitor, 3-nitropropionate, was used as a reference control.

Test [2] relates to C. albicans SC5314. Put plainly: In vitro growth assay (MIC) in YNB broth. The note with it: 28 °C. The test is classed as cell-based, Candida albicans. From the text:
(§1) The glyoxylate cycle is necessary for virulence in C. albicans, which can survive in macrophages under abundant carbon sources, such as fatty acids or their breakdown products. When C. albicans is phagocytosed by a macrophage, the shift in metabolism from glycolysis to the glyoxylate cycle is activated so that the cells can utilize C2 carbon sources. It was expected that ICL inhibitors would reduce the nutrient uptake capacity and impede survival of the pathogen in the macrophage. To determine whether cyclo(L-Phe-L-Val) affects C2 substrate use, C. albicans strains SC5314, ATCC10231, ATCC10259, ATCC11006, and ATCC18804 were grown in YNB liquid broth containing either 2% glucose or 2% acetate as the sole carbon source.
(§2) C. albicans strains were cultured in YNB broth containing 2% glucose at 28 °C for 24 h, centrifuged at 15,000× g for 1 min, and washed twice with sterile distilled water. […] Additional DMSO was added to the medium at a final concentration of 0.5%. The fungal strain culture (20 μL) was poured into a 96-well assay plate at a final concentration of 1 × 10^4 cells/mL and total volume of 100 μL. The culture plates were incubated at 28 °C for 3 days. The positive control was amphotericin B, which is a known antifungal compound.

Test [3] has as its system icl mRNA expression. In words: icl expression analysis by semi-quantitative RT-PCR. In kind it is cell-based, Candida albicans. The note with it: SC5314 and MRC11, 2% potassium acetate plus 8, 16, 32 μg/mL compound, 4 h, 28 °C. How it is done: (§3) To determine whether the cell phenotype of the icl-deletion mutant is affected by the presence of cyclo(L-Phe-L-Val), a growth assay was conducted using C. albicans SC5314 (wild type) and two icl-deletion mutants (MRC10 and MRC11). After pre-culture, these strains were streaked onto YNB agar containing 2% glucose or 2% potassium acetate with or without 32 μg/mL cyclo(L-Phe-L-Val). All strains grew normally on both the plates with glucose and with glucose plus the compound. […] We further conducted semi-quantitative reverse-transcription (RT)-PCR to assess the effects of cyclo(L-Phe-L-Val) on ICL expression. No ICL-specific PCR product was detected in the cultures when SC5314 and MRC11 were grown in YNB liquid broth containing glucose. […] GPDH expression was detected in all treatments regardless of cyclo(L-Phe-L-Val) exposure.
(§4) Figure 3 Analysis of growth phenotypes and icl mRNA expression. […] Total RNA was prepared from these cells, and icl mRNA expression was analyzed by semi-quantitative RT-PCR. The GPDH housekeeping gene was evaluated as a loading control.
(§5) C. albicans SC5314 (wild type) and icl-deletion mutants (MRC10 and MRC11) were cultured in YNB broth containing 2% glucose at 28 °C on a rotary shaker for 24 h. […] RNA extraction, cDNA synthesis, and semi-quantitative RT-PCR were performed using previously described methods. […]

For test [4], the system named is C. albicans SC5314 (wild type) and icl-deletion mutants (MRC10 and MRC11). Put plainly: Growth phenotype on YNB agar plates. The test is classed as cell-based, Candida albicans. The note with it: 2 days, 28 °C. How it is done:
as §3, §4, §5

For test [5], the system named is C. albicans strains SC5314, ATCC10231, ATCC10259, ATCC11006, and ATCC18804. In words: In vitro growth assay, summary over five strains. In kind it is cell-based, Candida albicans.
Source text: as §1, §2

The subject of test [6] is C. albicans ATCC18804. Put plainly: In vitro growth assay (MIC) in YNB broth. The note with it: Candida albicans, ATCC18804, 72 h, 28 °C. The test is classed as cell-based.
Source text: as §1, §2

Test [7] relates to C. albicans ATCC11006. In words: In vitro growth assay (MIC) in YNB broth. In kind it is cell-based. The note with it: Candida albicans, ATCC11006, 72 h, 28 °C.
Source text: as §1, §2

Test [8] has as its system C. albicans ATCC10231. In words: In vitro growth assay (MIC) in YNB broth. The test is classed as cell-based. To be noted: Candida albicans, ATCC10231, 72 h, 28 °C.
Source text: as §1, §2

The test system of test [9] is C. albicans ATCC10259. In words: In vitro growth assay (MIC) in YNB broth. The note with it: Candida albicans, ATCC10259, 72 h, 28 °C. In kind it is cell-based.
Source text: as §1, §2

Setting [10] is: ICL IC50, 37 °C, 30 min, pH 7.0, n = 3.
Setting [11] is: Candida albicans, SC5314, 72 h, 2% glucose, read-out: MIC.
The mark [12] stands for this setting: Candida albicans, SC5314, 72 h, 2% potassium acetate, read-out: MIC.
[13] abbreviates: Candida albicans, SC5314, 2% glucose, 72 h, read-out: MIC.

The structures appear in SMILES notation. Converted amounts (≈) assume the structure as drawn. “And” between values parts separate entries of the source, which are not always exact repeats. Identical values can stand only once. “Also recorded” adds a separate entry of the source. Like-named read-outs stand apart in the source and are kept apart here.

T1 sequence (Q9P8Q7 whole entry): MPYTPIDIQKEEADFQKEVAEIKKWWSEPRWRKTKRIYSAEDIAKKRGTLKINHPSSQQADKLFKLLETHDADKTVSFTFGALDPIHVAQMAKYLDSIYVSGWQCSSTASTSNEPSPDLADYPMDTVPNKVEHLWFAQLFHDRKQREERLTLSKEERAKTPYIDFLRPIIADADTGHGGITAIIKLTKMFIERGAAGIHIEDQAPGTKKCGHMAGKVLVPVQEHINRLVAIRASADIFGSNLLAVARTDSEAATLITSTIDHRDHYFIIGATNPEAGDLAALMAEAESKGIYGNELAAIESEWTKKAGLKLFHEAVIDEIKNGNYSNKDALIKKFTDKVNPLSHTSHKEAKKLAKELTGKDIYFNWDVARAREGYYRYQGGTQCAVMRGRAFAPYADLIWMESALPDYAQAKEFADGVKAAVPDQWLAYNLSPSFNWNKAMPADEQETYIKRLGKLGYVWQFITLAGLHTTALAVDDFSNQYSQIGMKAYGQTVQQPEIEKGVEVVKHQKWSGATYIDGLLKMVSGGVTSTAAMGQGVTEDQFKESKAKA

As to `CC(C)[C@@H]1NC(=O)[C@@H]2CCCN2C1=O` [Cyclo(L-Pro-L-Val), cyclo(L-Pro-L-Val)], the IC50 in test [1] (setting [10]) came to 516 µM. Further, in test [2] (setting [11]), the MIC was over 256 µg/mL.
As for `CC(C)C1NC(=O)C(Cc2ccccc2)NC1=O` [Cyclo(L-Phe-L-Val), cyclo(L-Phe-L-Val)], the “intensity of PCR band of icl product (icl transcript level)” value in [3] is given as “decreased; also recorded: declined”. For the same compound, the Ki in test [1] was determined as 64.9 µM. In addition, in [1] (setting [10]), the IC50 is 110 µM and 113 µM. Moreover, the type of inhibition result in [1] (kinetic analysis) was “mixed inhibitor”. For the same compound, the MIC in test [2] (setting [11]) is over 256 µg/mL; in test [2] (setting [12]), 32 µg/mL (≈ 130 µM); in test [5] (Candida albicans, acetate as sole carbon source, range over five strains, read-out: minimum inhibitory concentration) it was 32 to 64 µg/mL (≈ 130 to 260 µM); in test [6] (2% glucose), over 256 µg/mL; in test [6] (2% potassium acetate), 64 µg/mL (≈ 260 µM); in test [7] (2% glucose) it was over 256 µg/mL. Further, the MIC in [7] (2% potassium acetate) was 32 µg/mL (≈ 130 µM); in test [8] (2% glucose), over 256 µg/mL; in test [8] (2% potassium acetate) it was 32 µg/mL (≈ 130 µM); in test [9] (2% glucose), over 256 µg/mL; in test [9] (2% potassium acetate), 64 µg/mL (≈ 260 µM). Also, the “growth on YNB agar” value in test [4] (2% glucose plus 32 μg/mL compound) is “grew normally”; in test [4] (2% potassium acetate plus 32 μg/mL compound) it was “none of the tested strains exhibited growth; also recorded: no growth”. Also, the “inhibitory effect on C. albicans growth” value in [5] (glucose as sole carbon source) is recorded as “no inhibitory effect”.
`CC(C)C[C@@H]1NC(=O)[C@@H]2CCCN2C1=O` [Cyclo(L-Pro-L-Leu), cyclo(L-Pro-L-Leu)]: in test [1] (setting [10]), the IC50 is 534 µM. In addition, the MIC in test [2] (setting [11]) was over 256 µg/mL.
`C[C@@H]1[C@H](O)[C@@H](C)/C=C/C=C/C=C/C=C/C=C/C=C/C=C/[C@H](O[C@@H]2O[C@H](C)[C@@H](O)[C@H](N)[C@@H]2O)C[C@@H]2O[C@](O)(C[C@@H](O)C[C@@H](O)[C@H](O)CC[C@@H](O)C[C@@H](O)CC(=O)O[C@H]1C)C[C@H](O)[C@H]2C(=O)O` [Amphotericin B, reference compound]: the MIC in test [2] (setting [11]) worked out at 1 µg/mL (≈ 1.08 µM); in test [2] (setting [12]) it was 0.5 µg/mL (≈ 0.541 µM); in [6] (2% glucose) it was 1 µg/mL (≈ 1.08 µM); in test [6] (2% potassium acetate), 0.5 µg/mL (≈ 0.541 µM); in test [7] (2% glucose) it was 0.5 µg/mL (≈ 0.541 µM); in test [7] (2% potassium acetate), 0.5 µg/mL (≈ 0.541 µM). Also, the MIC is 1 µg/mL (≈ 1.08 µM) in test [8] (2% glucose), 0.5 µg/mL (≈ 0.541 µM) in [8] (2% potassium acetate), 1 µg/mL (≈ 1.08 µM) in test [9] (2% glucose) and 0.5 µg/mL (≈ 0.541 µM) in test [9] (2% potassium acetate).
On to `O=C1NC(Cc2ccc(O)cc2)C(=O)N2CCCC12` [Cyclo(L-Pro-L-Tyr), cyclo(L-Pro-L-Tyr)], for which the 50% inhibitory concentration (IC50) in test [1] (setting [10]) is over 984 µM. Also, the MIC in test [2] (setting [13]) was over 256 µg/mL.
For the compound `O=C1N[C@@H](Cc2ccccc2)C(=O)N2CCC[C@@H]12` [Cyclo(L-Phe-L-Pro), cyclo(L-Phe-L-Pro)], the MIC in test [2] (setting [13]) was over 256 µg/mL.
Consider `O=C(O)CC[N+](=O)[O-]` [3-Nitropropionate, reference compound], for which the “ICL IC50” value in test [1] (37 °C, 30 min, pH 7.0, n = 3) was determined as 1.90 ± 1.57 µg/mL. Further, the IC50 in [1] (37 °C, 30 min, pH 7.0, n = 3, read-out: ICL IC50) is 15.9 ± 2.13 µM. In [2] (2% glucose, 72 h), this compound displayed an MIC of over 256 µg/mL.
